Test results taken from the kinase profiling compilation of Christmann-Franck et al. (2016).

Columns and labels:
Test in all cases: radiometric filter-binding kinase assay
[1] = molecular target: AURKB (human) (UniProt Q96GD4); details: compound 100.0 µM; ATP 20 µM
[2] = molecular target: CAMKK2 (human) (UniProt Q96RR4); details: compound 100.0 µM; ATP 20 µM
[3] = molecular target: CHEK1 (human) (UniProt O14757); details: compound 100.0 µM; ATP 20 µM
[4] = molecular target: CHEK2 (human) (UniProt O96017); details: compound 100.0 µM; ATP 20 µM
[5] = molecular target: CLK2 (human) (UniProt P49760); details: compound 100.0 µM; ATP 5 µM
[6] = molecular target: CSK (human) (UniProt P41240); details: compound 100.0 µM; ATP 20 µM
[7] = molecular target: DYRK2 (human) (UniProt Q92630); details: compound 100.0 µM; ATP 50 µM
[8] = molecular target: EPHB3 (human) (UniProt P54753); details: compound 100.0 µM; ATP 20 µM
[9] = molecular target: GCK (human) (UniProt Q12851); details: compound 100.0 µM; ATP 20 µM
[10] = molecular target: GSK3B (human) (UniProt P49841); details: compound 100.0 µM; ATP 5 µM
[11] = molecular target: HIPK1 (human) (UniProt Q86Z02); details: compound 100.0 µM; ATP 20 µM
[12] = molecular target: IGF1R (human) (UniProt P08069); details: compound 100.0 µM; ATP 5 µM
[13] = molecular target: IKBKB (human) (UniProt O14920); details: compound 100.0 µM; ATP 5 µM
[14] = molecular target: IRAK4 (human) (UniProt Q9NWZ3); details: compound 100.0 µM; ATP 20 µM
[15] = molecular target: JAK2 JH1 JH2 (human) (UniProt O60674); details: compound 100.0 µM; ATP 5 µM
[16] = molecular target: MAP2K1 (human) (UniProt Q02750); details: compound 100.0 µM; ATP 5 µM
[17] = molecular target: MAP2K2 (human) (UniProt P36507); details: compound 100.0 µM; ATP 5 µM
[18] = molecular target: MAP3K7 TAB1 (human) (UniProt Q15750+O43318); details: compound 100.0 µM; ATP 5 µM
[19] = molecular target: MAPK11 (human) (UniProt Q15759); details: compound 100.0 µM; ATP 20 µM
[20] = molecular target: MAPK12 (human) (UniProt P53778); details: compound 100.0 µM; ATP 5 µM
[21] = molecular target: MAPK14 (human) (UniProt Q16539); details: compound 100.0 µM; ATP 50 µM
[22] = molecular target: MAPKAPK5 (human) (UniProt Q8IW41); details: compound 100.0 µM; ATP 20 µM
[23] = molecular target: MARK4 (human) (UniProt Q96L34); details: compound 100.0 µM; ATP 50 µM
[24] = molecular target: MKNK1 (human) (UniProt Q9BUB5); details: compound 100.0 µM; ATP 50 µM
[25] = test system: PAK2 (human), Q13177 [T402E]; details: compound 100.0 µM; ATP 20 µM
[26] = molecular target: PAK4 (human) (UniProt O96013); details: compound 100.0 µM; ATP 5 µM
[27] = molecular target: PAK7 (human) (UniProt Q9P286); details: compound 100.0 µM; ATP 20 µM
[28] = molecular target: PDPK1 (human) (UniProt O15530); details: compound 100.0 µM
[29] = molecular target: PLK1 (human) (UniProt P53350); details: compound 100.0 µM; ATP 5 µM
[30] = molecular target: PRKAA1 PRKAB2 PRKAG1 (human) (UniProt O43741+Q13131+P54619); details: compound 100.0 µM; ATP 20 µM
[31] = molecular target: PRKCG (human) (UniProt P05129); details: compound 100.0 µM; ATP 20 µM
[32] = molecular target: RIPK2 (human) (UniProt O43353); details: compound 100.0 µM; ATP 20 µM
[33] = test system: SGK1 (human), O00141 [S422D]; details: compound 100.0 µM; ATP 20 µM
[34] = molecular target: SRC (human) (UniProt P12931); details: compound 100.0 µM; ATP 50 µM
[35] = molecular target: SRPK1 (human) (UniProt Q96SB4); details: compound 100.0 µM; ATP 50 µM
[36] = molecular target: STK11 CAB39 STRADA (human) (UniProt Q9Y376+Q7RTN6+Q15831); details: compound 100.0 µM; ATP 20 µM
[37] = molecular target: STK3 (human) (UniProt Q13188); details: compound 100.0 µM; ATP 20 µM
[38] = molecular target: TTK (human) (UniProt P33981); details: compound 100.0 µM; ATP 20 µM
[39] = molecular target: YES1 (human) (UniProt P07947); details: compound 100.0 µM; ATP 20 µM

MAP2K1 (human), sequence (Q02750 whole entry, looked up): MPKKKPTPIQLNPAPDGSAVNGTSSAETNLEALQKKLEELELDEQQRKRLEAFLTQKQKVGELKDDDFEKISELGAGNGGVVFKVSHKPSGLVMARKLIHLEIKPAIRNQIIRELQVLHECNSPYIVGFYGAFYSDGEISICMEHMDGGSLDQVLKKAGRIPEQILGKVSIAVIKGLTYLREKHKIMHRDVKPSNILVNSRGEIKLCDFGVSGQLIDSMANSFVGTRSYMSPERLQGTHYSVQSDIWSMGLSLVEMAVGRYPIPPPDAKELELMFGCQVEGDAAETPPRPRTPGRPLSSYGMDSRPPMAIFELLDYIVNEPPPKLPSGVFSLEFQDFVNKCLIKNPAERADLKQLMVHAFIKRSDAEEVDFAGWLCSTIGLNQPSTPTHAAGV
MAPK12 (human), sequence (P53778 whole entry, looked up): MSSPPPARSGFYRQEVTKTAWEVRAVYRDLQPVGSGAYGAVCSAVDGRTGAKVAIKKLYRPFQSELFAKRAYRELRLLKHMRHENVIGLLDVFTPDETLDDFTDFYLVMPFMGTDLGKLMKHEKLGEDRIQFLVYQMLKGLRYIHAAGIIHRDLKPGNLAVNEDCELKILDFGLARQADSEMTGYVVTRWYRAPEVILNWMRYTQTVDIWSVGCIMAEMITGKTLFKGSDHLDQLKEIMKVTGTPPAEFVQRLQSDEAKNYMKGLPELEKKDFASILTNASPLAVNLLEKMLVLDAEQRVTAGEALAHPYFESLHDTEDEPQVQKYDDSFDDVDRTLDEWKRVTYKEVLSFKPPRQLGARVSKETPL
MAPKAPK5 (human), sequence (Q8IW41 whole entry, looked up): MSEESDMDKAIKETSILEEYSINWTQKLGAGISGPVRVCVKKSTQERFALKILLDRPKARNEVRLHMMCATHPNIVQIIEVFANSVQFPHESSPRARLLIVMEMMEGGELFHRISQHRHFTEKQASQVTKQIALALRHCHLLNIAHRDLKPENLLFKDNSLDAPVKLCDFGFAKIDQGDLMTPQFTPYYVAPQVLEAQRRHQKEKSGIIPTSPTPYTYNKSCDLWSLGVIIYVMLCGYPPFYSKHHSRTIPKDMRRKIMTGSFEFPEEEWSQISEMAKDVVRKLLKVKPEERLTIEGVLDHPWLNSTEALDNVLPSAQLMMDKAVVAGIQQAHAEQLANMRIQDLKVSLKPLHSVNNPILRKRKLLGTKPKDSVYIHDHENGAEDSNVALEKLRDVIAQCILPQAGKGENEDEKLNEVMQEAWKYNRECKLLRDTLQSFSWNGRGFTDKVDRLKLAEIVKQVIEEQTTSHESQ
PRKAA1 PRKAB2 PRKAG1 (human), sequence (O43741 whole entry, looked up): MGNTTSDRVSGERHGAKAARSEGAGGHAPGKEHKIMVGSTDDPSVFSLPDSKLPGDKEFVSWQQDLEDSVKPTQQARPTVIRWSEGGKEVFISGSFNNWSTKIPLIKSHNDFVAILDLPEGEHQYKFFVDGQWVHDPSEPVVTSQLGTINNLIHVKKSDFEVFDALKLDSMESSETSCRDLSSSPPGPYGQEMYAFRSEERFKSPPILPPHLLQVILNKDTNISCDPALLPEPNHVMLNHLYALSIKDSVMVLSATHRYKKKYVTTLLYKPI
PRKAA1 PRKAB2 PRKAG1 (human), sequence (P54619 whole entry, looked up): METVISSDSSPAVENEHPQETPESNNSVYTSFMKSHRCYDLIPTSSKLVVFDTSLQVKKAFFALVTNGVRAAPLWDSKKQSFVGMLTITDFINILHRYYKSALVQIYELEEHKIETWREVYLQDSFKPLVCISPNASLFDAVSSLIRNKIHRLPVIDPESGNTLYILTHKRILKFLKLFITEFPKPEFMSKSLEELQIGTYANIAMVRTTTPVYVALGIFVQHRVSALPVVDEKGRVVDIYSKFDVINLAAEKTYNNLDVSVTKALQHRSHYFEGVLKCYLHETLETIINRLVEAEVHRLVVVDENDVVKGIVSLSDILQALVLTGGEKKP
PRKAA1 PRKAB2 PRKAG1 (human), sequence (Q13131 whole entry, looked up): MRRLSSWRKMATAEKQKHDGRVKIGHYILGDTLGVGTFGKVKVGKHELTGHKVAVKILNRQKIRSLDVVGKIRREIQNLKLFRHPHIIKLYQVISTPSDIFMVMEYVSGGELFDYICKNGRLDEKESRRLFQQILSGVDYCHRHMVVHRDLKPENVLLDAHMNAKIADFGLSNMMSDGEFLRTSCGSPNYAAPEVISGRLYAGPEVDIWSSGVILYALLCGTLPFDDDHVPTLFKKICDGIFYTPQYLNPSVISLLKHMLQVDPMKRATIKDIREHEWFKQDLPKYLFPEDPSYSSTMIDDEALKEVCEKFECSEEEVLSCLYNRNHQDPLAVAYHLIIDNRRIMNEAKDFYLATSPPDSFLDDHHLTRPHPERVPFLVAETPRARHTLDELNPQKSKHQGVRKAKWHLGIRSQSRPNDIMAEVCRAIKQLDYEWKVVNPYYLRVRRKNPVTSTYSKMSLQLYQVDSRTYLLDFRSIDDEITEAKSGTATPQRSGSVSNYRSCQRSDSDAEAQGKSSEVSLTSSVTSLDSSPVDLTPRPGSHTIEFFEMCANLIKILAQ
CSK (human), sequence (P41240 whole entry, looked up): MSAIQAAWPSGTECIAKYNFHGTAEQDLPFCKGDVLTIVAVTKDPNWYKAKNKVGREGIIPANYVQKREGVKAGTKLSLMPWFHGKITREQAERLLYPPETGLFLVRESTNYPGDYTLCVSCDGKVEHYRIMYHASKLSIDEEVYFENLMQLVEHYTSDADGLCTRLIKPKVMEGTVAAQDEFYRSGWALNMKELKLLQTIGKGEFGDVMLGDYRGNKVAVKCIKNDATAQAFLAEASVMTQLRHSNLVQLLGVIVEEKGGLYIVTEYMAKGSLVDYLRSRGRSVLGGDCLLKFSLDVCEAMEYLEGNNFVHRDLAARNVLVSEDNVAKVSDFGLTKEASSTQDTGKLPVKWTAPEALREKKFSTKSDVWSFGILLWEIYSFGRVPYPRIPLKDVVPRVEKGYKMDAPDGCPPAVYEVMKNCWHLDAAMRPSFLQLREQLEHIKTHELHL
CHEK1 (human), sequence (O14757 whole entry, looked up): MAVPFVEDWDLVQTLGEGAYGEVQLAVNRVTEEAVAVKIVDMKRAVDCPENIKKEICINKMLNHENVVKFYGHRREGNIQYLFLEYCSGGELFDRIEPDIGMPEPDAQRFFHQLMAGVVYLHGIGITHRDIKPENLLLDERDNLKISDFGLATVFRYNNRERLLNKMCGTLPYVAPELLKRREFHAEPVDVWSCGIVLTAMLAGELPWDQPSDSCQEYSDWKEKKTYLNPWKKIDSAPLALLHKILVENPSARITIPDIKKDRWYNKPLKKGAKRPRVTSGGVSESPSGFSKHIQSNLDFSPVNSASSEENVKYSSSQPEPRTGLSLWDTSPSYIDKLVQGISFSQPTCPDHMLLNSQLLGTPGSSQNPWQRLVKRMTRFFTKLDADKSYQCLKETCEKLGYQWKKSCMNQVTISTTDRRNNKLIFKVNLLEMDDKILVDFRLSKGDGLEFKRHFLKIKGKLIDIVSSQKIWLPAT
MKNK1 (human), sequence (Q9BUB5 whole entry, looked up): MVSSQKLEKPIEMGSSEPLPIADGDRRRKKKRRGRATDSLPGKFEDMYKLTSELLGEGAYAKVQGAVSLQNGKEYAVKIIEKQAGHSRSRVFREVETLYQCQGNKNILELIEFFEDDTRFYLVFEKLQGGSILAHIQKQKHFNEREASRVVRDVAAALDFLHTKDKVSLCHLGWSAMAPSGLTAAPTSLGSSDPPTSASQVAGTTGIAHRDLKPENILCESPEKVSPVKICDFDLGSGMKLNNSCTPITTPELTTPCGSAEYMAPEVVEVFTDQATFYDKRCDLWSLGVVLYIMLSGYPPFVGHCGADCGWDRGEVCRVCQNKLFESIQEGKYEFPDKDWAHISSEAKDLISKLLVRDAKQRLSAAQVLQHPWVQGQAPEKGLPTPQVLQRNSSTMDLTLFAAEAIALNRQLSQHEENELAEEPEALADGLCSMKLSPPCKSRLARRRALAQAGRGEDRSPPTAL
AURKB (human), sequence (Q96GD4 whole entry, looked up): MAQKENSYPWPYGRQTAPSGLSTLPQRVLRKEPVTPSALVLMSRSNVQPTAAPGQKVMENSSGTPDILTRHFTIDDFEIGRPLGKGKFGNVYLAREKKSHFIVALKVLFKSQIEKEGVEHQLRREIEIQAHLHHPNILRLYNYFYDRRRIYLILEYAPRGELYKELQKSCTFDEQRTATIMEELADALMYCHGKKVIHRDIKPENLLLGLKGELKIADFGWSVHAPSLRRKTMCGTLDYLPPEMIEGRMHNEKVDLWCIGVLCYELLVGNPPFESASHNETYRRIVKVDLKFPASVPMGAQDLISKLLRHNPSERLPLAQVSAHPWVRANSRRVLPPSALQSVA

Structure (SMILES)	inhibition [1] [%]	inhibition [2] [%]	inhibition [3] [%]	inhibition [4] [%]	inhibition [5] [%]	inhibition [6] [%]	inhibition [7] [%]	inhibition [8] [%]	inhibition [9] [%]	inhibition [10] [%]	inhibition [11] [%]	inhibition [12] [%]	inhibition [13] [%]	inhibition [14] [%]	inhibition [15] [%]	inhibition [16] [%]	inhibition [17] [%]	inhibition [18] [%]	inhibition [19] [%]	inhibition [20] [%]	also measured
O=C(Nc1cnc2[nH]ccn2c1=O)c1ccccc1	0	0	2	32	0	23	19	5	6	9	24	0	0	19	9	24	0	26	23	0	inhibition [21]: 2%; inhibition [22]: 17%; inhibition [23]: 13%; inhibition [24]: 0%; inhibition [25]: 12%; inhibition [26]: 20%; inhibition [27]: 3%; inhibition ([28]; ATP 20 µM): 14%; inhibition ([28]; ATP 50 µM): 4%; inhibition [29]: 10%; inhibition [30]: 0%; inhibition [31]: 0%; inhibition [32]: 16%; inhibition [33]: 1%; inhibition [34]: 8%; inhibition [35]: 14%; inhibition [36]: 0%; inhibition [37]: 21%; inhibition [38]: 0%; inhibition [39]: 11%
O=c1cc(-c2ccccc2F)nc2[nH]ccn12	0	0	4	19	48	8	37	0	29	44	30	28	15	40	25	43	18	37	23	6	inhibition [21]: 21%; inhibition [22]: 13%; inhibition [23]: 0%; inhibition [24]: 31%; inhibition [25]: 0%; inhibition [26]: 11%; inhibition [27]: 0%; inhibition ([28]; ATP 20 µM): 2%; inhibition ([28]; ATP 50 µM): 15%; inhibition [29]: 8%; inhibition [30]: 0%; inhibition [31]: 7%; inhibition [32]: 57%; inhibition [33]: 18%; inhibition [34]: 11%; inhibition [35]: 0%; inhibition [36]: 6%; inhibition [37]: 27%; inhibition [38]: 11%; inhibition [39]: 33%
COc1ccc(-c2cc3c(=O)[nH]cnc3s2)cc1OC	19	0	0	38	50	14	56	0	0	62	13	0	29	9	60	23	0	45	15	0	inhibition [21]: 0%; inhibition [22]: 5%; inhibition [23]: 23%; inhibition [24]: 5%; inhibition [25]: 0%; inhibition [26]: 30%; inhibition [27]: 0%; inhibition ([28]; ATP 20 µM): 41%; inhibition ([28]; ATP 50 µM): 25%; inhibition [29]: 0%; inhibition [30]: 0%; inhibition [31]: 0%; inhibition [32]: 65%; inhibition [33]: 63%; inhibition [34]: 0%; inhibition [35]: 36%; inhibition [36]: 0%; inhibition [37]: 9%; inhibition [38]: 25%; inhibition [39]: 0%
